ChEMBL document CHEMBL1121544, “Synthesis, absorption, and toxicity of N1,N8-bis(2,3-dihydroxybenzoyl)spermidine, a potent iron chelator” (J Med Chem, 1980)

What was measured:
Format in all cases: functional, organism-based
Rattus norvegicus [1] = organism: Rattus norvegicus; test: % chelator inside the intestinal sac in animal 2 at upper segment of the intestine starting from the proximal end.
Rattus norvegicus [2] = organism: Rattus norvegicus; test: % chelator inside the intestinal sac in animal 1 at middle segment of the intestine starting from the proximal end.
Rattus norvegicus [3] = organism: Rattus norvegicus; test: % chelator inside the intestinal sac in animal 2 at middle segment of the intestine starting from the proximal end.
Rattus norvegicus [4] = organism: Rattus norvegicus; test: % chelator inside the intestinal sac in animal 3 at middle segment of the intestine starting from the proximal end.
Rattus norvegicus [5] = organism: Rattus norvegicus; test: % chelator inside the intestinal sac in animal 2 at lower (distal) segment of the intestine starting from the proximal end
Rattus norvegicus [6] = organism: Rattus norvegicus; test: % chelator inside the intestinal sac in animal 3 at upper segment of the intestine starting from the proximal end.
Rattus norvegicus [7] = organism: Rattus norvegicus; test: % chelator inside the intestinal sac in animal 1 at upper segment of the intestine starting from the proximal end.
Rattus norvegicus [8] = organism: Rattus norvegicus; test: % chelator inside the intestinal sac in animal 1 at lower (distal) segment of the intestine starting from the proximal end
Rattus norvegicus [9] = organism: Rattus norvegicus; test: % chelator inside the intestinal sac in animal 3 at lower (distal) segment of the intestine starting from the proximal end

Question: For `O=C(NCCCCNCCCNC(=O)c1cccc(O)c1O)c1cccc(O)c1O`, which Chelator (Rattus norvegicus [1]) is on record?
Answer: The Chelator was 33%.

Question: What about the Chelator (Rattus norvegicus [2]) of the same compound?
Answer: Its Chelator is 40%.

Question: What about the Chelator (Rattus norvegicus [3]) of the same compound?
Answer: Its Chelator is 35%.

Question: And the Chelator (Rattus norvegicus [4])?
Answer: The Chelator was 44%.

Question: And the Chelator (Rattus norvegicus [5])?
Answer: Its Chelator is 32%.

Question: What about the Chelator (Rattus norvegicus [6]) of the same compound?
Answer: Its Chelator is 32%.

Question: And the Chelator (Rattus norvegicus [7])?
Answer: The Chelator was 42%.

Question: And the Chelator (Rattus norvegicus [8])?
Answer: Its Chelator is 44%.

Question: And the Chelator (Rattus norvegicus [9])?
Answer: Its Chelator is 50%.
